In patent US8741659B2, “Composition for measuring the binding affinity between nucleic acid and test substance, and use thereof” (Osaka University, priority 2007, dated 2014):

What was measured:
RRE [1] = experiment: Displacement assay using Rev peptide after formation of complex with RRE; type: binding, HIV-1; conditions: for fluorescence intensity in displacement assay / recovery rate of the fluorescence intensity: compound and RRE each 2 μM
Method: In this Example, a binding affinity between a test substance and RRE was evaluated, with use of the compounds, X2S, X2S(3), X2S(4), X2S(5), X2S(2-Me), and 3,6-X2S(2). As the test substance, Rev protein used in Example 5 was used.
Firstly, in the same manner as in Example 3, the above compounds and RREs were respectively dissolved in cacodylate buffer solutions (sodium cacodylate: 10 mM pH 7.0, NaCl: 100 mM) each at 2 μM, so that an X2S-RRE solution, an X2S(3)-RRE solution, an X2S(4)-RRE solution, an X2S(5)-RRE solution, an X2S(2-Me)-RRE solution, and a 3,6-X2S(2)-RRE solution were prepared.
To each of these solutions, Rev protein was added in stages at 0 μM, 0.4 μM, 0.8 μM, 1.2 μM, 1.6 μM, 2.0 μM, 2.4 μM, 2.8 μM, 3.2 μM, 3.6 μM, and 4.0 μM. Further, a fluorescence intensity was measured at each concentration. The fluorescence intensity was measured in the same manner as that described in Example 14.
Each of FIGS. 43 to 48 is a view illustrating a result of the measurement of a binding affinity between Rev protein and RRE. […] In each of FIGS. 43 to 48, the horizontal axis represents the fluorescence wavelength, whereas the vertical axis represents the fluorescence intensity. […] Further, along the direction of the arrow extending from the curved line at the bottom, the curved lines, showing the respective results, are arranged in order of increasing amount of the test substance which was added.
FIG. 49 is a view illustrating a relationship between an amount of Rev added and a fluorescence intensity, in connection with X2S, X2S(3), X2S(4), X2S(5), X2S(2-Me), and 3,6-X2S(2). Further, FIG. 49 is also a view plotting, based on the results illustrated in FIGS. 43 to 48, the fluorescence intensities detected at the fluorescence wavelength at which the respective fluorescence peaks were observed. FIG. 50 is a graph illustrating a relationship between an amount of Rev added and a recovery rate of the fluorescence intensity. In FIG. 49, the vertical axis represents the fluorescence intensity. In FIG. 50, the vertical axis represents the recovery rate of the fluorescence intensity. In each of FIGS. 49 and 50, the horizontal axis represents the amount of Rev added. That is, each of FIGS. 49 and 50 reflects amounts of the above compounds liberated from RREs due to the addition of Rev.
The recovery rate of the fluorescence intensity was obtained by dividing (i) a maximum value of the fluorescence intensity detected at each Rev concentration ranging from 0 μM to 4.0 μM in each of FIGS. 43 to 48 by (ii) a maximum value of the fluorescence intensity of the curved line at the top in each of FIGS. 43 to 48.
In this Example, 1-Pyrenemethanamide, hydrochloride was used to measure a binding affinity between a test substance and RRE. As the test substance, Rev protein used in Example 5 was used.
Firstly, in the same manner as in Example 3, 1-Pyrenemethanamide, hydrochloride and RRE were dissolved in a cacodylate buffer solution (sodium cacodylate: 10 mM, pH 7.0; NaCl: 100 mM) each at 2 μM, so that a 1-Pyrenemethanamide, hydrochloride-RRE solution was prepared.
To the solution, Rev protein was added in steps at 0 μM, 0.4 μM, 0.8 μM, 1.2 μM, 1.6 μM, 2.0 μM, 2.4 μM, 2.8 μM, 3.2 μM, 3.6 μM, and 4.0 μM. Further, the solution at each concentration was irradiated with light having an excitation wavelength of 340 nm, and a fluorescence intensity was measured. A device used for measuring a fluorescence intensity and a variation in a slit width were the same as those in Example 13.
FIG. 55 is a view illustrating a result of the measurement of a binding affinity between Rev protein and RRE. The horizontal axis represents the fluorescence wavelength, whereas the vertical axis represents the fluorescence intensity. […] Further, along a bottom-to-top direction, the curved lines, showing the respective results, are arranged in order of increasing amount of the test substance which was added. […]

[2] = tested on: RNAs of FIG. 2 (SEQ ID NOs: 1 through 3), with or without bulge structure; experiment: Evaluation of binding between xanthone fluorescent molecule and RNA (fluorescence before and after mixing RNA); conditions: 10 μM compound
Method: Next, binding between X2S and RNAs was evaluated. The RNAs used in the present example had the structure illustrated in FIG. 2. FIG. 2 is a diagram schematically illustrating the structure of the RNAs used in the present example. The RNAs used in the present example had sequences shown in SEQ ID NOs: 1 through 3.
The symbol N in FIG. 2 represents either a base out of A, U, C, and G, or no base. Thus, in a case where a particular RNA as in FIG. 2 has N representing a base out of A, U, C, and G, the RNA is an RNA formed by hybridization of an RNA having the base sequence shown in SEQ ID NO: 1 with a single strand RNA having the base sequence shown in SEQ ID NO: 2. On the other hand, in a case where a particular RNA as in FIG. 2 has N representing no base, the RNA is an RNA formed by hybridization of an RNA having the base sequence shown in SEQ ID NO: 1 with an RNA having the base sequence shown in SEQ ID NO: 3.
This also applies to other bases. The RNAs used in the present example were purchased from Hokkaido System Science Co., Ltd.
Firstly, X2S was mixed in a cacodylate buffer solution (sodium cacodylate: 10 mM, pH 7.0; NaCl: 100 mM) at 10 μM, so that an X2S solution was obtained. The X2S solution was irradiated with light having an absorption maximum of 371±3 nm, and a fluorescence intensity was then measured. The fluorescence intensity was measured with use of a device (product number: RF-5300PC) available from Shimadzu Corporation. For each type of the RNAs, the fluorescence intensity was measured after the RNA was mixed in the X2S solution at 30 μM.
FIGS. 3 and 4 compare the fluorescence intensities measured before and after the RNA was mixed. […] The horizontal axis represents the fluorescence wavelength, whereas the vertical axis represents the fluorescence intensity. FIG. 4 is an enlarged graph corresponding to the fluorescence intensity of 5 A.U. in FIG. 3 and its vicinity.
Binding between X1S and RNAs was evaluated by a method identical to the method described in Example 2, except that X1S was used instead of X2S. […]

RRE [3] = experiment: Displacement assay using X2S; type: binding, HIV-1; conditions: for binding affinity with respect to RRE / change of fluorescence intensity on addition of test substance: X2S and RRE each 2 μM, test substance 0-4.0 μM; for change of fluorescence intensity on addition of test substance: 453 nm
Description: In this Example, X2S was used to measure a binding affinity between a test substance and RRE. As the test substance, Rev protein (supplied by Professor Takashi MORII, Graduates School of Energy Science, Kyoto University), aminoglycoside antibiotic neomycin (available from Sigma-Aldrich, product number; N-1876) (hereinafter, simply referred to as “neomycin”), and thrombin (available from Bachem, product number; AG H-8550) were used. […] The structure of Rev protein is shown in FIG. 9, and the amino acid sequence of Rev protein is shown in SEQ ID NO: 5. FIG. 9 is a view schematically illustrating the structure of Rev protein. Further, the structure of thrombin is shown in FIG. 10, and the amino acid sequence of thrombin is shown in SEQ ID NO: 6. FIG. 10 is a view schematically illustrating the structure of thrombin.
Firstly, in the same manner as in Example 3, X2S and RRE were dissolved in a cacodylate buffer solution (sodium cacodylate: 10 mM, pH 7.0; NaCl: 100 mM) each at 2 μM. Thus, an X2S-RRE solution was prepared.
To the X2S-RRE solution, Rev protein was added in steps at 0 μM, 0.4 μM, 0.8 μM, 1.2 μM, 1.6 μM, 2.0 μM, 2.4 μM, 2.8 μM, 3.2 μM, 3.6 μM, and 4.0 μM. Further, a fluorescence intensity was measured at each concentration. Similarly, to the X2S-RRE solution, neomycin was added in steps at 0 μM, 0.4 μM, 0.8 μM, 1.2 μM, 1.6 μM, 2.0 μM, 2.4 μM, 2.8 μM, 3.2 μM, 3.6 μM, and 4.0 μM. Further, a fluorescence intensity was measured at each concentration. Similarly, to the X2S-RRE solution, thrombin was added in steps at 0 μM, 0.4 μM, 0.8 μM, 1.2 μM, 1.6 μM, 2.0 μM, 2.4 μM, 2.8 μM, 3.2 μM, 3.6 μM, and 4.0 μM. Further, a fluorescence intensity was measured at each concentration. The fluorescence intensities were measured in the same manner as that described in Example 2.
FIG. 11 is a view illustrating a result of the measurement of a binding affinity between Rev protein and RRE; FIG. 12 is a view illustrating a result of the measurement of a binding affinity between neomycin and RRE; and FIG. 13 is a view illustrating a result of the measurement of a binding affinity between thrombin and RRE. In each of FIGS. 11 to 13, the horizontal axis represents the fluorescence wavelength, whereas the vertical axis represents the fluorescence intensity. […] Furthermore, along the direction of the arrow extending from the curved line at the bottom, the curved lines are arranged in order of increasing amount of the test substance which was added.
FIG. 14 is a view plotting the fluorescence intensities at a fluorescence wavelength of 453 nm shown in the results illustrated in FIGS. 11 to 13. The horizontal axis represents the concentration of each test substance, whereas the vertical axis represents the fluorescence intensity. In FIG. 14, the circle marks represent the result obtained in the case involving use of Rev protein, the square marks represent the result obtained in the case involving use of neomycin, and the triangle marks represent the result obtained in the case involving use of thrombin.
A displacement assay using X2S was performed in the same manner as that described in Example 5, except that, in this Example, fluorescence was measured also when Rev protein was added at concentrations of 4.4 μM and 4.8 μM.
FIG. 16 is a view illustrating the result of the displacement assay using X2S. The horizontal axis represents the fluorescence wavelength, whereas the vertical axis represents the fluorescence intensity.

Row | Compound | fluorescence intensity in displacement assay (RRE [1]; Rev protein 0-4.0 μM) | recovery rate of the fluorescence intensity (RRE [1]; Rev protein 0-4.0 μM) | binding affinity with respect to RRE (RRE [3]) | change of fluorescence intensity on addition of test substance (RRE [3]) | further results
1 | NCCOc1ccc2c(=O)c3ccc(OCCN)cc3oc2c1 [3,6-X2S(2), 3,6-bis(2-aminoethoxy)xanthen-9-one] | low | almost equal to that of X2S |  |  | 
2 | NCCOc1ccc2oc3ccccc3c(=O)c2c1 [X1S, 2-(2-aminoethoxy)xanthen-9-one] |  |  |  |  | binding to RNAs ([2]; 30 μM RNA (A, U, C, G bulge or no bulge), cacodylate buffer pH 7.0, NaCl 100 mM): binds to RNAs regardless of whether the bulge structure is present; detected decrease in the fluorescence intensity on mixing RNA ([2]; 30 μM RNA, compared with X2S): small as compared to the case of X2S
3 | CC(N)COc1ccc2oc3ccc(OCC(C)N)cc3c(=O)c2c1 (stereo not shown) [X2S(2-Me), 2,7-bis(2-methyl-2-aminoethoxy)xanthen-9-one] | lower than that of X2S | highest |  |  | 
4 | Rev protein: Rev protein, SEQ ID NO: 5, known to bind to RRE; test substance (TRQARRNRRRRWRERQRAAAAR; Human immunodeficiency virus type 1) |  |  | significantly high binding affinity | increased the fluorescence intensity | change of fluorescence intensity on addition of Rev protein (RRE [1]; 1-Pyrenemethanamide, hydrochloride and RRE each 2 μM, excitation 340 nm): increased the fluorescence intensity; binding affinity of Rev protein with respect to RRE (RRE [1]; measured with X2S, X2S(3), X2S(4), X2S(5), X2S(2-Me), 3,6-X2S(2), each 2 μM with RRE): significantly high binding affinity; change of fluorescence intensity on addition of Rev protein (RRE [1]; xanthone compounds and RRE each 2 μM, Rev protein 0-4.0 μM): increased the fluorescence intensity; fluorescence intensity recovered (RRE [3]; X2S-RRE solution, FIG. 14, 453 nm): approximately 80%
5 | neomycin [reference compound] |  |  | lower binding affinity with respect to RRE compared with Rev protein | slightly increased the fluorescence intensity | 
6 | thrombin |  |  | does not bind to RRE | hardly increased the fluorescence intensity | 
